Experimental data from publication PMC8427292, “Identification and Characterization of Antimicrobial Peptides From Butterflies: An Integrated Bioinformatics and Experimental Study” (Frontiers in Microbiology, 2021).
No end group written: not given here.

Columns and labels:
[1] = test system: Staphylococcus aureus biofilm; experiment: Antibiofilm assay (crystal violet); assay type: cell-based; design: unit not given here; conditions: S. aureus, 570 nm; for MBEC: biofilm eradication; for MBIC: biofilm prevention
Description: (§1) Biofilms of the aforementioned microbes were allowed to form in microtiter plates under respective culture conditions in the absence (eradication) or presence (prevention) of AMPs. After incubation, the culture supernatant was discarded, and each well was gently rinsed to remove planktonic bacteria. Biofilms were fixed with methanol and stained with 0.1% crystal violet for 20 min; then the dye bound to the cells was resolubilized with ethanol, and the absorbance of the solution was evaluated at 570 nm using a microplate reader ([Abouelhassan et al., 2017]).

Escherichia coli biofilm = experiment: Antibiofilm assay (crystal violet); assay type: cell-based; design: unit not given here; conditions: E. coli, 570 nm; for MBIC: biofilm formed in presence of AMPs (prevention); for MBEC: pre-formed biofilm (eradication)
Description: as §1

Candida albicans biofilm = experiment: Antibiofilm assay (crystal violet); assay type: cell-based; conditions: C. albicans, 570 nm; for MBEC: biofilm eradication; for MBIC: biofilm prevention
Description: as §1

C. albicans = experiment: In vivo antimicrobial assay, skin infection mouse model; conditions: neutropenic mice, s.c. 100 μl of 1.0 × 10^8 CFU⋅ml^–1 C. albicans; 100 μl AMP at MIC s.c. daily from 12 h post-infection; day 4; vs control
Description: (§2) In vivo antimicrobial activities of the designed AMPs were examined in neutropenic mice following subcutaneous inoculation of 100 μl of 1.0 × 10^8 CFU⋅ml^–1 E. coli, S. aureus, or C. albicans ([Lee et al., 2005]). At 12 h post-infection, 100 μl of AMPs at the respective MIC value was applied by subcutaneous injection each day. Mice were sacrificed on day 4, and the infected area was carefully excised and homogenized. The CFU count was determined after overnight incubation of the homogenate aliquots. All animal care and experiments were performed in compliance with institutional and government guidelines and were approved by the Peking Union Medical College Hospital Animal Care and Use Committee.

S. aureus = experiment: as above; conditions: neutropenic mice, s.c. 100 μl of 1.0 × 10^8 CFU⋅ml^–1 S. aureus; 100 μl AMP at MIC s.c. daily from 12 h post-infection; day 4; vs control
Description: as §2

E. coli = experiment: as above; conditions: neutropenic mice, s.c. 100 μl of 1.0 × 10^8 CFU⋅ml^–1 E. coli; 100 μl AMP at MIC s.c. daily from 12 h post-infection; day 4; vs control
Description: as §2

| Substance | MBEC [1] | MBIC [1] | MBIC (Escherichia coli biofilm) | MBEC (Escherichia coli biofilm) | MBEC (Candida albicans biofilm) | MBIC (Candida albicans biofilm) | CFU count in infected skin (C. albicans) | CFU count in infected skin (S. aureus) | CFU count in infected skin (E. coli) |
| --- | --- | --- | --- | --- | --- | --- | --- | --- | --- |
| GKIPIGAIKKGAKAVGKGLKALNIASTAHDIYSFHHKKKKH [MorA, designed synthetic butterfly moricin analog] | 16 | 4 | 4 | 8 | 16 | 4 | suppress proliferation |  |  |
| KWKIFKKIEKVGRNIRDGIIKAGPAVQVVGQAATIYKGK [CecB, designed synthetic butterfly cecropin analog] | 16 | 2 | 2 | 8 | 32 | 16 |  | attenuate growth | attenuate growth |
| DKLIGSCVWGAVNYTSDCNAECKRRGYKGGHCGSFANVNCWCET (disulfide (positions not given here)) [DefA, designed synthetic butterfly defensin analog] | 16 | 4 | 8 | 32 |  |  |  |  |  |
| GCVFYECIARCRQRGYLSGGYCTINGCQCL-NH2 (disulfide (positions not given here)) [DefB, designed synthetic butterfly defensin analog, C-terminally amidated] | 16 | 2 | 8 | 32 |  |  |  |  |  |
